The text below walks through data of ChEMBL document CHEMBL1122276, “6-Chloro-2,3,4,5-tetrahydro-3-methyl-1H-3-benzazepine: a potent and selective antagonist of alpha 2-adrenoceptors” (J Med Chem, 1983).

The species entered for test [1] is Cavia porcellus. Put plainly: Dissociation constant (KB) for competitive inhibition of BHR 920 induced depression of neurotransmission in isolated guinea pig atrium. The class given is functional. The settings on record: Cardiac atrium.
A further test is filed under the species Oryctolagus cuniculus. The test can be described thus: Ability to block the norepinephrine constrictor response in the rabbit ear artery in a competitive fashion. The class given is functional.
For another test, the species on record is Canis familiaris. The test can be described thus: Effective concentration of 100% release of [3H]norepinephrine from electrically stimulated dog splenic arteries. The class given is functional, Canis lupus familiaris.
For test [2], the species on record is Cavia porcellus. Put plainly: Concentration-related inhibition of response to sympathetic nerve stimulation in isolated guinea pig atrium mediated by alpha-2 receptors. The class given is functional. The settings on record: Cardiac atrium.

Regarding `CN1CCc2cccc(Cl)c2CC1.Cl`, the Kb in the test filed under Cavia porcellus [1] worked out at 17 nM; in the test filed under Oryctolagus cuniculus, 900 nM. Moreover, the EC100 in the test listed under Canis familiaris is 210 nM.
A word on the EC50: it is the concentration giving half of the maximal effect. For the molecule `C=CCN1CCc2nc(N)sc2CC1` [TALIPEXOLE], the EC50 in the test filed under Cavia porcellus [2] was determined as 100 nM.
